Experimental data: BigSolDB 2.1

Nc1ccc(Cc2ccc(N)c(Cl)c2)cc1Cl
solubility (mole fraction) (in 1,4-dioxane, 288.15 K): 0.206
solubility (mole fraction) (in 1,4-dioxane, 293.15 K): 0.217
solubility (mole fraction) (in 1,4-dioxane, 298.15 K): 0.236
solubility (mole fraction) (in 1,4-dioxane, 303.15 K): 0.258
solubility (mole fraction) (in 1,4-dioxane, 308.15 K): 0.285
solubility (mole fraction) (in 1,4-dioxane, 313.15 K): 0.32
solubility (mole fraction) (in 1,4-dioxane, 318.15 K): 0.354
solubility (mole fraction) (in 1,4-dioxane, 323.15 K): 0.394
solubility (mole fraction) (in 1,4-dioxane, 328.15 K): 0.443
solubility (mole fraction) (in DMAc, 283.15 K): 0.339
solubility (mole fraction) (in DMAc, 288.15 K): 0.348
solubility (mole fraction) (in DMAc, 293.15 K): 0.366
solubility (mole fraction) (in DMAc, 298.15 K): 0.384
solubility (mole fraction) (in DMAc, 303.15 K): 0.41
solubility (mole fraction) (in DMAc, 308.15 K): 0.436
solubility (mole fraction) (in DMAc, 313.15 K): 0.466
solubility (mole fraction) (in DMAc, 318.15 K): 0.502
solubility (mole fraction) (in DMAc, 323.15 K): 0.548
solubility (mole fraction) (in DMAc, 328.15 K): 0.587
solubility (mole fraction) (in DMF, 283.15 K): 0.306
solubility (mole fraction) (in DMF, 288.15 K): 0.316
solubility (mole fraction) (in DMF, 293.15 K): 0.33
solubility (mole fraction) (in DMF, 298.15 K): 0.347
solubility (mole fraction) (in DMF, 303.15 K): 0.373
solubility (mole fraction) (in DMF, 308.15 K): 0.396
solubility (mole fraction) (in DMF, 313.15 K): 0.425
solubility (mole fraction) (in DMF, 318.15 K): 0.462
solubility (mole fraction) (in DMF, 323.15 K): 0.502
solubility (mole fraction) (in DMF, 328.15 K): 0.545
solubility (mole fraction) (in acetonitrile, 283.15 K): 0.0208
solubility (mole fraction) (in acetonitrile, 288.15 K): 0.0225
solubility (mole fraction) (in acetonitrile, 293.15 K): 0.0251
solubility (mole fraction) (in acetonitrile, 298.15 K): 0.0283
solubility (mole fraction) (in acetonitrile, 303.15 K): 0.0323
solubility (mole fraction) (in acetonitrile, 308.15 K): 0.0367
solubility (mole fraction) (in acetonitrile, 313.15 K): 0.0419
solubility (mole fraction) (in acetonitrile, 318.15 K): 0.048
solubility (mole fraction) (in acetonitrile, 323.15 K): 0.0574
solubility (mole fraction) (in acetonitrile, 328.15 K): 0.0671
solubility (mole fraction) (in ethanol, 283.15 K): 0.0223
solubility (mole fraction) (in ethanol, 288.15 K): 0.0242
solubility (mole fraction) (in ethanol, 293.15 K): 0.0272
solubility (mole fraction) (in ethanol, 298.15 K): 0.0314
solubility (mole fraction) (in ethanol, 303.15 K): 0.0362
solubility (mole fraction) (in ethanol, 308.15 K): 0.0424
solubility (mole fraction) (in ethanol, 313.15 K): 0.049
solubility (mole fraction) (in ethanol, 318.15 K): 0.057
solubility (mole fraction) (in ethanol, 323.15 K): 0.0677
solubility (mole fraction) (in ethanol, 328.15 K): 0.0803
solubility (mole fraction) (in ethyl acetate, 283.15 K): 0.115
solubility (mole fraction) (in ethyl acetate, 288.15 K): 0.123
solubility (mole fraction) (in ethyl acetate, 293.15 K): 0.134
solubility (mole fraction) (in ethyl acetate, 298.15 K): 0.146
solubility (mole fraction) (in ethyl acetate, 303.15 K): 0.162
solubility (mole fraction) (in ethyl acetate, 308.15 K): 0.177
solubility (mole fraction) (in ethyl acetate, 313.15 K): 0.196
solubility (mole fraction) (in ethyl acetate, 318.15 K): 0.223
solubility (mole fraction) (in ethyl acetate, 323.15 K): 0.254
solubility (mole fraction) (in ethyl acetate, 328.15 K): 0.287
solubility (mole fraction) (in ethylene glycol, 283.15 K): 0.0057
solubility (mole fraction) (in ethylene glycol, 288.15 K): 0.00624
solubility (mole fraction) (in ethylene glycol, 293.15 K): 0.00816
solubility (mole fraction) (in ethylene glycol, 298.15 K): 0.00975
solubility (mole fraction) (in ethylene glycol, 303.15 K): 0.0123
solubility (mole fraction) (in ethylene glycol, 308.15 K): 0.0148
solubility (mole fraction) (in ethylene glycol, 313.15 K): 0.0181
solubility (mole fraction) (in ethylene glycol, 318.15 K): 0.0208
solubility (mole fraction) (in ethylene glycol, 323.15 K): 0.0239
solubility (mole fraction) (in ethylene glycol, 328.15 K): 0.0281
solubility (mole fraction) (in isobutanol, 283.15 K): 0.0136
solubility (mole fraction) (in isobutanol, 288.15 K): 0.015
solubility (mole fraction) (in isobutanol, 293.15 K): 0.0172
solubility (mole fraction) (in isobutanol, 298.15 K): 0.0197
solubility (mole fraction) (in isobutanol, 303.15 K): 0.0227
solubility (mole fraction) (in isobutanol, 308.15 K): 0.0259
solubility (mole fraction) (in isobutanol, 313.15 K): 0.0301
solubility (mole fraction) (in isobutanol, 318.15 K): 0.0357
solubility (mole fraction) (in isobutanol, 323.15 K): 0.0426
solubility (mole fraction) (in isobutanol, 328.15 K): 0.0513
solubility (mole fraction) (in isopropanol, 283.15 K): 0.0189
solubility (mole fraction) (in isopropanol, 288.15 K): 0.0203
solubility (mole fraction) (in isopropanol, 293.15 K): 0.0226
solubility (mole fraction) (in isopropanol, 298.15 K): 0.0261
solubility (mole fraction) (in isopropanol, 303.15 K): 0.0294
solubility (mole fraction) (in isopropanol, 308.15 K): 0.0336
solubility (mole fraction) (in isopropanol, 313.15 K): 0.039
solubility (mole fraction) (in isopropanol, 318.15 K): 0.0447
solubility (mole fraction) (in isopropanol, 323.15 K): 0.0532
solubility (mole fraction) (in isopropanol, 328.15 K): 0.0623
solubility (mole fraction) (in methanol, 283.15 K): 0.0163
solubility (mole fraction) (in methanol, 288.15 K): 0.018
solubility (mole fraction) (in methanol, 293.15 K): 0.02
solubility (mole fraction) (in methanol, 298.15 K): 0.0231
solubility (mole fraction) (in methanol, 303.15 K): 0.026
solubility (mole fraction) (in methanol, 308.15 K): 0.0297
solubility (mole fraction) (in methanol, 313.15 K): 0.0347
solubility (mole fraction) (in methanol, 318.15 K): 0.0405
solubility (mole fraction) (in methanol, 323.15 K): 0.048
solubility (mole fraction) (in methanol, 328.15 K): 0.0565
solubility (mole fraction) (in n-butanol, 283.15 K): 0.0298
solubility (mole fraction) (in n-butanol, 288.15 K): 0.0323
solubility (mole fraction) (in n-butanol, 293.15 K): 0.037
solubility (mole fraction) (in n-butanol, 298.15 K): 0.0425
solubility (mole fraction) (in n-butanol, 303.15 K): 0.0484
solubility (mole fraction) (in n-butanol, 308.15 K): 0.0551
solubility (mole fraction) (in n-butanol, 313.15 K): 0.0632
solubility (mole fraction) (in n-butanol, 318.15 K): 0.0737
solubility (mole fraction) (in n-butanol, 323.15 K): 0.0873
solubility (mole fraction) (in n-butanol, 328.15 K): 0.105
solubility (mole fraction) (in n-propanol, 283.15 K): 0.0257
solubility (mole fraction) (in n-propanol, 288.15 K): 0.0278
solubility (mole fraction) (in n-propanol, 293.15 K): 0.0322
solubility (mole fraction) (in n-propanol, 298.15 K): 0.0369
solubility (mole fraction) (in n-propanol, 303.15 K): 0.0422
solubility (mole fraction) (in n-propanol, 308.15 K): 0.0484
solubility (mole fraction) (in n-propanol, 313.15 K): 0.0562
solubility (mole fraction) (in n-propanol, 318.15 K): 0.066
solubility (mole fraction) (in n-propanol, 323.15 K): 0.0783
solubility (mole fraction) (in n-propanol, 328.15 K): 0.094
solubility (mole fraction) (in water, 283.15 K): 0.00014
solubility (mole fraction) (in water, 288.15 K): 0.000172
solubility (mole fraction) (in water, 293.15 K): 0.000228
solubility (mole fraction) (in water, 298.15 K): 0.000286
solubility (mole fraction) (in water, 303.15 K): 0.000342
solubility (mole fraction) (in water, 308.15 K): 0.000409
solubility (mole fraction) (in water, 313.15 K): 0.000475
solubility (mole fraction) (in water, 318.15 K): 0.000559
solubility (mole fraction) (in water, 323.15 K): 0.000684
solubility (mole fraction) (in water, 328.15 K): 0.000842
